{"source": "patent US9012403B2", "about": "“Peptides as active agents to stabilize biological barriers” (XiberScience GmbH, priority 2010, dated 2015)", "key": {"GEF [1]": {"test_system": "GEF", "assay": "GEF-activity in membrane fractions of ECV304 cells (RhoGEF Exchange Assay)", "assay_type": "cell-based", "conditions": "ECV 304, no stimulus, peptide 50 μg/ml", "procedure": "(§1) To measure the GEF-inhibitory effect, the following cell lines were used: Caco-2 (epithelial cells from adeno-carcinoma), ECV304 (epithelial cells from bladder carcinoma) and HpMec (endothelial cells, immortalized pulmonary micro-vascular cells). All cells were grown at standard conditions (37° C., 5% CO2 and 95% relative humidity (rH)). Culture Medium used for Caco-2: DMEM+1 mM sodium pyruvate+20% FCS+1% Penicillin Streptomycin; for ECV 304: RPMI 1640+10% FCS+1% Penicillin Streptomycin; and for HpMec: IMDM+25 mM Hepes+10% Human Serum+1% Penicillin Streptomycin+1% L-Glutamine+ECGS/Heparin 2 ml. 4 h before the experiment, cells were starved by serum withdrawal. To induce GEF-activity, cells were stimulated with thrombin, lipopolysaccharide (LPS) or PMA for the indicated time in presence or absence of 50 μg/ml XIB1-a or XIB1-b. After stimulation, membrane fractions were prepared by using the commercial available “Compartemental Protein Extraction Kit” from Biochain institutes. Membrane fractions were prepared according to the manufacturer instructions. GEF-activity in membrane lysates was determined by using “RhoGEF Exchange Assay Biochem Kit” from Cytoskeleton Inc. according to manufacturer instructions. GEF-activity was measured as fluorescence at using the Fluoroskan Ascent FL 2.6 from Thermo Electron Corporation. The excitation Filter wavelength was set at 355 nm and the emission filter wavelength at 460 nm."}, "GEF [2]": {"test_system": "GEF", "assay": "GEF-activity in membrane fractions of Caco-2 cells (RhoGEF Exchange Assay)", "assay_type": "cell-based", "conditions": "CaCo-2, no stimulus, peptide 50 μg/ml", "procedure": "as §1"}, "GEF [3]": {"test_system": "GEF", "assay": "GEF-activity in membrane fractions of HpMec cells (RhoGEF Exchange Assay)", "assay_type": "cell-based", "conditions": "HpMec, no stimulus, peptide 50 μg/ml", "procedure": "as §1"}, "GTP-bound RhoA [4]": {"test_system": "GTP-bound RhoA", "assay": "GTP-associated active RhoA in ECV304 membrane fraction (western blot)", "assay_type": "cell-based", "conditions": "ECV 304, no stimulus, peptide 50 μg/ml", "procedure": "(§2) To measure the GTP-associated active RhoA, the following cell lines were used: Caco-2, ECV304 and HpMec. All cells were grown at standard conditions (37° C., 5% CO2 and 95% rH). 4 h before the experiment, cells were starved by serum withdrawal. To induce GEF-activity, cells were stimulated with thrombin, LPS or PMA for the indicated time in presence or absence of 50 μg/ml XIB1-a or XIB1-b. After stimulation, membrane fractions were prepared by using the commercial available “Compartemental Protein Extraction Kit” from Biochain Institutes. Membrane fractions were prepared according to the manufacturer instructions. The membrane fraction was separated on 15% polyacrylamide gel according to standard procedures of gel electrophoresis. The gels were afterwards blotted on a nitrocellulose membrane according to standard procedures of western blotting. GTP-bound RhoA was detected using RhoA-GTP monoclonal antibody from NewEast Inc. in a dilution of 1:5000. Protein bands were analyzed with the Dolphin-1D Gel analysis system (Wealtec)."}, "GTP-bound RhoA [5]": {"test_system": "GTP-bound RhoA", "assay": "GTP-associated active RhoA in Caco-2 membrane fraction (western blot)", "assay_type": "cell-based", "conditions": "CaCo-2, no stimulus, peptide 50 μg/ml", "procedure": "as §2"}, "GTP-bound RhoA [6]": {"test_system": "GTP-bound RhoA", "assay": "GTP-associated active RhoA in HpMec membrane fraction (western blot)", "assay_type": "cell-based", "conditions": "HpMec, no stimulus, peptide 50 μg/ml", "procedure": "as §2"}, "[7]": {"test_system": "Phosphorylated Myosin Light Chain (MLC) and actin stress fibers", "assay": "MLC phosphorylation and actin stress fiber formation in ECV304 cells (microscopy score)", "assay_type": "cell-based", "conditions": "ECV 304, no stimulus, peptide 50 μg/ml", "procedure": "(§3) To measure MLC phosphorylation and actin stress fiber formation, the following cell lines were used: Caco-2, ECV304 and HpMec. All cells were grown at standard conditions (37° C., 5% CO2 and 95% rH). Culture Medium used: for Caco-2: DMEM+1 mM sodium pyruvate+20% FCS+1% Penicillin Streptomycin; for ECV 304: RPMI 1640+10% FCS+1% Penicillin Streptomycin; and for HpMec: IMDM+25 mM Hepes+10% Human Serum+1% Penicillin Streptomycin+1% L-Glutamine+ECGS/Heparin 2 ml. 4 h before the experiment, cells were starved by serum withdrawal. To induce GEF-activity, cells were stimulated with thrombin, LPS or PMA for the indicated time in presence or absence of 50 μg/ml XIB1-a or XIB1-b. After stimulation, cells were fixed using 4% PFA. Phospho MLC was detected by using the “rabbit anti phosphor-myosin light chain antibody” from Chemicon in a concentration of 3 μl/ml in PBS (Gibco) supplemented with 0.1% Triton X-100. As detection antibody, the Alexa 448 tagged “anti Rabbit IgG Antibody” from Invitrogen was used in a concentration of 0.5 μl/ml in PBS (Gibco) supplemented with 0.1% Triton X-100. Aktin was detected using TRITC-labeled Phalloidin in a concentration of 0.5 μl/ml in PBS (Gibco) supplemented with 0.1% Triton. Stained cells were analyzed by using a Zeiss Laser Scan microscope. Evaluation of the cyto-skeletal activation was performed by 2 independent observers that were blinded to the conditions. Evaluation criteria were set as follows:\n(§4) Actin: parallel actin bundles absent=0; distinct bundle formation=1; prominent parallel bundles=2; Phospho-MLC: present at cell poles=0; slight co-localization with actin bundles=1; prominent co-localization with actin bundles=2"}, "[8]": {"test_system": "Phosphorylated Myosin Light Chain (MLC) and actin stress fibers", "assay": "MLC phosphorylation and actin stress fiber formation in Caco-2 cells (microscopy score)", "assay_type": "cell-based", "conditions": "CaCo-2, no stimulus, peptide 50 μg/ml", "procedure": "as §3, §4"}, "[9]": {"test_system": "Phosphorylated Myosin Light Chain (MLC) and actin stress fibers", "assay": "MLC phosphorylation and actin stress fiber formation in HpMec cells (microscopy score)", "assay_type": "cell-based", "conditions": "no stimulus, peptide 50 μg/ml", "procedure": "as §3, §4"}, "LPS induced lung injury": {"test_system": "LPS induced lung injury", "assay": "LPS induced lung injury, bronchoalveolar lavage", "assay_type": "in vivo", "conditions": "mice, n = 20", "procedure": "Male C57Bl/6 Mice (Charles River, Germany) were kept at the animal facility of the Medical University of Vienna, feed with standard diet and water was provided ad libitum. All interventions were performed according to the guide lines of AAALAC (Association for Assessment and Accreditation of Laboratory Animal Care). All experiment were approved by the Ethic committee of the Medical University of Vienna. Mice were anesthetized with isoflouran and treated with 100 ng of LPS (E. coli O55:B5, Sigma Aldrich) intranasally. XIB1-a or XIB1-b was applied either intra-peritoneally (2×2 mg/kg) or via inhalation (2×4 mg/kg), first application was performed concomitantly with LPS administration, the second application was performed 1 h after the LPS inhalation.\nThe trachea was exposed through a midline incision and canulated with a sterile 20-gauge catheter (BD Venflon™, Becton Dickinson Infusion Therapy, Helsingborg, Sweden). Bilateral broncho-alveolar lavage fluid (BALF) was gained by instilling two 0.5 ml aliquots of sterile saline. Approximately 0.9-1 ml BALF was retrieved per mouse. Total cell numbers were counted from each sample using a hemo-cytometer (Türck chamber), BALF differential cell counts were done on cytospin preparations stained with Giemsa. For protein measurements, BALF was diluted 1:2 in buffer containing 300 mM NaCl, 30 mM Tris, 2 mM MgCl2, 2 mM CaCl2, and Pepstatin A, Leupeptin and Aprotinin (all 20 ng/ml; pH 7.4). Protein levels in BALF were measured using the BCA protein kit according to the manufacturer's instructions (Pierce, Rockford, Ill.).\nIn addition, the same set-up as described above was used for comparing the impact of XIB1-b compared to Bβ15-42 (PLoS ONE (2009), 4(4): e5391), a peptide derived from fibrin having the sequence […] (SEQ ID NO: 41). Bβ15-42 was added in the same manner as XIB1-b. Again, protein content and cell count of BALF was measured."}, "[10]": {"conditions": "6 h after LPS administration, intratracheal application"}}, "note": "Marks after values point to notes of the source that are not given here."}
{"sequence": "GGGGGLSRRIP (/note=“Description of artificial sequence variable insert”) [Control Peptide, random peptide used for control purposes, reference compound]", "values": [{"measurement": "GEF-activity, relative values compared to unstimulated control (Mean)", "setting": "GEF [1]; 1 min", "result": 1}, {"measurement": "GEF-activity, relative values compared to unstimulated control (Mean)", "setting": "GEF [1]; 5 min", "result": 1}, {"measurement": "GEF-activity, relative values compared to unstimulated control (Mean)", "setting": "GEF [2]; 1 min", "result": 1}, {"measurement": "GEF-activity, relative values compared to unstimulated control (Mean)", "setting": "GEF [2]; 5 min", "result": 1}, {"measurement": "GEF-activity, relative values compared to unstimulated control (Mean)", "setting": "GEF [3]; 1 min", "result": 1}, {"measurement": "GEF-activity, relative values compared to unstimulated control (Mean)", "setting": "GEF [3]; 5 min", "result": 1}, {"measurement": "GTP-bound RhoA, relative values compared to unstimulated control (Mean)", "setting": "GTP-bound RhoA [4]; 1 min", "result": 1}, {"measurement": "GTP-bound RhoA, relative values compared to unstimulated control (Mean)", "setting": "GTP-bound RhoA [4]; 5 min", "result": 1}, {"measurement": "GTP-bound RhoA, relative values compared to unstimulated control (Mean)", "setting": "GTP-bound RhoA [5]; 1 min", "result": 1}, {"measurement": "GTP-bound RhoA, relative values compared to unstimulated control (Mean)", "setting": "GTP-bound RhoA [5]; 5 min", "result": 1}, {"measurement": "GTP-bound RhoA, relative values compared to unstimulated control (Mean)", "setting": "GTP-bound RhoA [6]; 1 min", "result": 1}, {"measurement": "GTP-bound RhoA, relative values compared to unstimulated control (Mean)", "setting": "GTP-bound RhoA [6]; 5 min", "result": 1}, {"measurement": "MLC phosphorylation and actin stress fiber formation, evaluation score (Mean)", "setting": "[7]; 1 min", "result": 0}, {"measurement": "MLC phosphorylation and actin stress fiber formation, evaluation score (Mean)", "setting": "[7]; 5 min", "result": 0}, {"measurement": "MLC phosphorylation and actin stress fiber formation, evaluation score (Mean)", "setting": "[8]; 1 min", "result": 0}, {"measurement": "MLC phosphorylation and actin stress fiber formation, evaluation score (Mean)", "setting": "[8]; 5 min", "result": 0}, {"measurement": "MLC phosphorylation and actin stress fiber formation, evaluation score (Mean)", "setting": "[9]; 1 min", "result": 0}, {"measurement": "MLC phosphorylation and actin stress fiber formation, evaluation score (Mean)", "setting": "[9]; 5 min", "result": 0}, {"measurement": "counts of neutrophils in the BALF (mean +/ SD)", "setting": "LPS induced lung injury; comparison with Bβ15-42 (Table 6), 6 h after LPS, intraperitoneal application", "result": "91 +/− 33 neutrophils/ml (× 10^3)"}, {"measurement": "counts of neutrophils in the BALF (mean +/ SD)", "setting": "LPS induced lung injury; comparison with Bβ15-42 (Table 6), 6 h after LPS, intratracheal plus intraperitoneal application", "result": "94 +/− 30 neutrophils/ml (× 10^3)"}, {"measurement": "albumine content of BALFs (mean +/ SD)", "setting": "LPS induced lung injury; comparison with Bβ15-42 (Table 6, last section), 6 h after LPS, intraperitoneal application as printed", "result": "250 ± 25", "unit": "µg/mL"}, {"measurement": "counts of neutrophils in the BALF (mean +/ SD)", "setting": "LPS induced lung injury; 6 h after LPS administration, intraperitoneal application (2×2 mg/kg)", "result": "88 +/− 33 neutrophils/ml (× 10^3)"}, {"measurement": "albumine content of BALFs (mean +/ SD)", "setting": "LPS induced lung injury; [10]", "result": "237 ± 32", "unit": "µg/mL"}, {"measurement": "counts of neutrophils in the BALF (mean +/ SD)", "setting": "LPS induced lung injury; [10]", "result": "90 +/− 30 neutrophils/ml (× 10^3)"}]}
